Experiment: in vitro
Settings: human, hela cells, % viability

| SMILES | viability at 28.5 h, 10 µM |
| --- | --- |
| CN1C[C@@H](NS(=O)(=O)c2ccc(C#N)cc2)C[C@H]1c1nc(-c2ccncc2)no1 [CBK288871] | 86.9% |
| Cc1noc([C@@H]2C[C@H](NC(=O)c3ccc(C#N)cc3)CN2C)n1 [CBK288872] | 97.6% |
| Cc1noc([C@@H]2C[C@H](NC(=O)Nc3cccc(C#N)c3)CN2C)n1 [CBK288873] | 104% |
| Cc1noc([C@@H]2C[C@H](NS(=O)(=O)c3ccc(C#N)cc3)CN2C)n1 [CBK288874] | 113% |
| CN1C[C@@H](NS(C)(=O)=O)C[C@H]1c1nc(-c2ccc3c(c2)OCO3)no1 [CBK288875] | 114% |
| CN1C[C@@H](NC(=O)Nc2ccccc2)C[C@H]1c1nc(-c2ccccc2)no1 [CBK288877] | 124% |
| CN1C[C@@H](NC(=O)NCc2ccccc2)C[C@H]1c1nc(-c2cncnc2)no1 [CBK288878] | 108% |
| CC(=O)N1CCN(c2cc(-c3noc([C@@H]4CCCN4C4CCOCC4)n3)ccn2)CC1 [CBK288879] | 88% |
| COCCOc1ccc(-c2noc([C@@H]3CCCN3)n2)cn1 [CBK288883] | 97.4% |
| CN1CCC[C@H]1c1nc(-c2ccnc(NS(C)(=O)=O)c2)no1 [CBK288884] | 86.8% |
| CS(=O)(=O)Nc1cc(-c2noc([C@@H]3CCCN3Cc3ccncc3)n2)ccn1 [CBK288886] | 83.5% |
| CS(=O)(=O)Nc1cc(-c2noc([C@@H]3CCCN3C3CCOCC3)n2)ccn1 [CBK288887] | 81.8% |
| CS(=O)(=O)Nc1cc(-c2noc([C@@H]3CCCN3C3CCC3)n2)ccn1 [CBK288889] | 112% |
| c1ccc(CN2CCC[C@H]2c2nc(-c3ccc(-c4cncnc4)nc3)no2)cc1 [CBK288891] | 87.5% |
| CC(C)N1CCC[C@H]1c1nc(-c2ccc(-c3cncnc3)nc2)no1 [CBK288892] | 115% |
| CN1CCC[C@H]1c1nc(-c2ccc(-n3ccnc3)nc2)no1 [CBK288893] | 96.6% |
| Fc1ccc(-c2noc([C@@H]3CCCN3Cc3ncc[nH]3)n2)nc1 [CBK288897] | 102% |
| COCc1cc(C[C@H]2CNCC[C@H]2CC(=O)N2CCCCC2)no1 [CBK288899] | 109% |
| CN(C)c1ccc(-c2noc([C@@H]3CCCN3C)n2)cn1 [CBK288902] | 104% |
| CS(=O)(=O)NC[C@H]1O[C@@H](Cc2nc(-c3ccc(F)cc3)no2)[C@H](O)[C@@H]1O [CBK288906] | 95.3% |
| O=C(NC[C@H]1O[C@@H](CC(=O)N2CCCC2)[C@H](O)[C@@H]1O)c1ccccc1 [CBK288907] | 88.5% |
| O=C(C[C@@H]1O[C@H](CNS(=O)(=O)c2ccccc2)[C@@H](O)[C@H]1O)N1CCCC1 [CBK288909] | 108% |
| Cc1ccc(C(=O)NC[C@H]2O[C@@H](CC(=O)N3CCCC3)[C@H](O)[C@@H]2O)cc1 [CBK288912] | 98.9% |
| O=C(C[C@@H]1O[C@H](CNCc2cccc(Cl)c2)[C@@H](O)[C@H]1O)N1CCCC1 [CBK288914] | 95% |
| O=C(NC[C@H]1O[C@@H](CC(=O)N2CCc3ccccc32)[C@H](O)[C@@H]1O)C1CC1 [CBK288915] | 105% |

| SMILES | viability at 28.5 h, 10 µM |
| --- | --- |
| O=C(C[C@@H]1O[C@H](CNS(=O)(=O)c2ccccc2)[C@@H](O)[C@H]1O)N1CCc2ccccc21 [CBK288916] | 91.2% |
| Cc1ccc(S(=O)(=O)NC[C@H]2O[C@@H](CC(=O)N3CCc4ccccc43)[C@H](O)[C@@H]2O)cc1 [CBK288917] | 91.3% |
| O=C(NC[C@H]1O[C@@H](CC(=O)N2CCN(c3ccccc3)CC2)[C@H](O)[C@@H]1O)c1ccco1 [CBK288919] | 97.9% |
| O=C(NC[C@H]1O[C@@H](CC(=O)N2CCN(c3ccccn3)CC2)[C@H](O)[C@@H]1O)c1ccco1 [CBK288923] | 102% |
| Cc1ccc(C(=O)NC[C@H]2O[C@@H](CC(=O)N3CCOCC3)[C@H](O)[C@@H]2O)cc1 [CBK288925] | 85.5% |
| CC1CCN(C(=O)C[C@@H]2O[C@H](CNC(=O)C3CC3)[C@@H](O)[C@H]2O)CC1 [CBK288926] | 92% |
| COc1ccc(N2C(=S)N(Cc3cccs3)[C@H]3[C@@H](O)[C@H](O)C[C@@H](C(N)=O)[C@H]32)cc1 [CBK288929] | 93% |
| NC(=O)[C@@H]1C[C@@H](O)[C@H](O)[C@H]2[C@@H]1N(c1ccc(Cl)cc1)C(=S)N2Cc1cccs1 [CBK288930] | 94.7% |
| CN1CCC(N2C[C@H](O)C[C@H]2c2nc(-c3ccc4c(c3)OCO4)no2)CC1 [CBK288931] | 93.6% |
| COc1ccc(CN2C(=S)N(c3ccc(OC)cc3)[C@H]3[C@@H]2[C@H]2OC(=O)[C@@H]3C[C@H]2O)cc1 [CBK288934] | 85.4% |
| COc1ccc(CN2C(=S)N(c3ccc(Cl)cc3)[C@H]3[C@@H]2[C@H]2OC(=O)[C@@H]3C[C@H]2O)cc1 [CBK288935] | 99.8% |
| COc1ccc(CN2C(=S)N(c3ccccc3)[C@H]3[C@@H]2[C@H]2OC(=O)[C@@H]3C[C@H]2O)cc1 [CBK288937] | 108% |
| CC(C)CN1C(=S)N(Cc2ccc(-c3ccccn3)cc2)[C@H]2[C@H]3OC(=O)[C@H](C[C@H]3O)[C@H]21 [CBK288938] | 113% |
| COc1ccc(N2C(=S)N(CC3CCCCC3)[C@H]3[C@H]4OC(=O)[C@H](C[C@H]4O)[C@H]32)cc1 [CBK288939] | 108% |
| COc1ccc(CN2/C(=N/c3ccccc3)S[C@H]3[C@@H]2[C@@H](O)[C@H](O)C[C@@H]3C(N)=O)cc1 [CBK288941] | 102% |
| O=C([C@@H]1C[C@@H](O)[C@H](O)[C@@H]2NC(=S)N(c3ccc4c(c3)OCO4)[C@@H]21)N1CCCCC1 [CBK288945] | 87.3% |
| CN(Cc1ccccc1)C(=O)[C@H]1C[C@@H](O)[C@H](O)[C@@H]2N=C(Nc3ccc(Cl)cc3)S[C@@H]21 [CBK288949] | 105% |
| COc1ccc(NC2=N[C@H]3[C@@H](O)[C@H](O)C[C@H](C(=O)N(C)Cc4ccccc4)[C@H]3S2)cc1 [CBK288950] | 96.7% |
| Cc1ccc(NC2=N[C@H]3[C@@H](O)[C@H](O)C[C@H](C(=O)N4CCCCC4)[C@H]3S2)cc1 [CBK288951] | 94.7% |
| OCc1ccc(CN2Cc3nc[nH]c3C[C@H]2c2nc(Cc3ccccc3)no2)o1 [CBK288955] | 93.8% |
| Cc1ccc(-c2noc([C@@H]3Cc4[nH]cnc4CN3C(=O)c3cccs3)n2)cc1 [CBK288957] | 82.2% |
| Cc1ccc(-c2noc([C@@H]3Cc4[nH]cnc4CN3C(=O)CCC(=O)O)n2)cc1 [CBK288958] | 96.3% |
| O=C(Nc1ccc(Cl)cc1)N1Cc2nc[nH]c2C[C@H]1c1nc(-c2ccncc2)no1 [CBK288964] | 91.4% |
| COc1ccc(C(=O)N2Cc3nc[nH]c3C[C@H]2c2nc(-c3ccc(OC)cc3)no2)cc1 [CBK288966] | 107% |
| COc1ccc(-c2noc([C@@H]3Cc4[nH]cnc4CN3C(=O)CCC(=O)O)n2)cc1 [CBK288967] | 90.3% |

| SMILES | viability at 28.5 h, 10 µM |
| --- | --- |
| COc1ccc(-c2noc([C@@H]3Cc4[nH]cnc4CN3C(=O)Nc3ccc(C)cc3)n2)cc1 [CBK288968] | 92.9% |
| CC(C)c1noc([C@@H]2Cc3[nH]cnc3CN2C(=O)Nc2ccccc2)n1 [CBK288969] | 86.5% |
| CC(=O)c1ccc(NC(=O)N2Cc3nc[nH]c3C[C@H]2c2nc(-c3ccc(F)cc3)no2)cc1 [CBK288971] | 83.6% |
| CCNC(=O)N1Cc2nc[nH]c2C[C@H]1C(=O)NCc1ccc(OC)cc1 [CBK288973] | 115% |
| CN1Cc2nc[nH]c2C[C@H]1C(=O)NCc1ccco1 [CBK288979] | 88% |
| COc1ccc(CN2Cc3nc[nH]c3C[C@H]2C(=O)N2CCC(Cc3ccccc3)CC2)cc1 [CBK288980] | 110% |
| COC(=O)[C@@H]1Cc2ncn(Cc3ccc(Cl)cc3)c2CN1C(=O)c1ccc(OC)cc1 [CBK288983] | 84.2% |
| COC(=O)[C@@H]1Cc2ncn(C(C)C)c2CN1S(=O)(=O)c1ccc(C#N)cc1 [CBK288986] | 84% |
| COC(=O)[C@@H]1Cc2ncn(C(C)C)c2CN1C(=O)c1ccccc1 [CBK288987] | 82.2% |
| COC(=O)[C@@H]1Cc2ncn(C(C)C)c2CN1C(=O)C1CCCCC1 [CBK288989] | 98.9% |
| COC(=O)[C@@H]1Cc2ncn(C)c2CN1S(=O)(=O)c1ccc(C#N)cc1 [CBK288993] | 83.9% |
| O=C(Nc1ccccc1)N1Cc2nc[nH]c2C[C@H]1c1nc(-c2ccccc2)no1 [CBK288997] | 84.3% |
| O=C(NC1CCCCC1)N1Cc2nc[nH]c2C[C@H]1c1nc(-c2ccc3c(c2)OCO3)no1 [CBK289000] | 95.7% |
| CC(C)NC(=O)N1Cc2nc[nH]c2C[C@H]1c1nc(-c2ccc3c(c2)OCO3)no1 [CBK289001] | 94.5% |
| CC(C)NC(=O)CC[C@@H]1CNC(=O)[C@@H]2C[C@H](NC(=O)c3ccccc3)CN12 [CBK289002] | 90.9% |
| O=C(Nc1cccc(Cl)c1)N[C@H]1C[C@H]2C(=O)NC[C@@H](CCC(=O)N3CCCC3)N2C1 [CBK289003] | 96.1% |
| O=C(CC[C@@H]1CNC(=O)[C@@H]2C[C@H](NC(=O)C3CC3)CN12)Nc1ccccc1 [CBK289006] | 113% |
| O=C(N[C@H]1C[C@H]2C(=O)NC[C@@H](CCC(=O)N3CCCCC3)N2C1)c1cccc(F)c1 [CBK289011] | 85% |
| CN1CCN(C(=O)CC[C@@H]2CNC(=O)[C@@H]3C[C@H](NC(=O)c4cccs4)CN23)CC1 [CBK289013] | 124% |
| CN1CCN(C(=O)CC[C@@H]2CNC(=O)[C@@H]3C[C@H](NC(=O)c4ccccc4)CN23)CC1 [CBK289014] | 86.7% |
| CN1CCN(C(=O)CC[C@@H]2CNC(=O)[C@@H]3C[C@H](NC(=O)c4cccc(F)c4)CN23)CC1 [CBK289015] | 92.2% |
| COC(=O)CC[C@H]1CNC(=O)[C@@H]2[C@@H](CCN2C)N1C [CBK289020] | 95.4% |
| CN1[C@@H](CCC(=O)NCc2ccc(F)cc2)CNC(=O)[C@@H]2[C@H]1CCN2C1CCOCC1 [CBK289023] | 106% |
| CC(C)N1CC[C@@H]2[C@H]1C(=O)NC[C@H](CCC(=O)NCc1ccc(F)cc1)N2C [CBK289024] | 91.4% |
